In ChEMBL document CHEMBL1201862, “PubChem BioAssay data set” (2004):
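Step 1: Grow cells in 96-well plates. Step 2: Expose to compound for 48 hours at 5 concentrations. Step 3: Interpolate endpoints linearly; if unreached, use highest concentration. GI50 = concentration required for 50% inhibition of growth.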 Active and inactive are the calls of the source. Rule as the data show it: active = GI50 up to about 1.1 µM and inactive = higher.

How the values were obtained:
Assay in all cases: inhibition of tumour cell growth, NCI panel, 48 h
CCRF-CEM = tested on: CCRF-CEM
U-251 = tested on: U-251
SF-539 = tested on: SF-539
SK-MEL-5 = tested on: SK-MEL-5
Hs-578T = tested on: Hs-578T
DU-145 = tested on: DU-145
OVCAR-3 = tested on: OVCAR-3
KM12 = tested on: KM12
IGROV-1 = tested on: IGROV-1
COLO 205 = tested on: COLO 205
SNB-19 = tested on: SNB-19
DLD-1 = tested on: DLD-1
SW-620 = tested on: SW-620
K562 = tested on: K562
UO-31 = tested on: UO-31
786-0 = tested on: 786-0
LOX IMVI = tested on: LOX IMVI
RXF 393 = tested on: RXF 393
SF-295 = tested on: SF-295
NCI-H23 = tested on: NCI-H23

Measured: GI50

COc1ccc(N2C(=O)/C(=C/c3ccc(N(CCC#N)CCC#N)cc3C)N=C2c2cc([N+](=O)[O-])ccc2Cl)cc1
inactive: CCRF-CEM 3.77 µM | U-251 4.42 µM | SF-539 3.37 µM | SK-MEL-5 5.43 µM | Hs-578T 1.54 µM | DU-145 6.34 µM | OVCAR-3 3.35 µM | KM12 6.52 µM | IGROV-1 19.7 µM | COLO 205 4.34 µM | SNB-19 8.13 µM | DLD-1 4.51 µM | SW-620 4.55 µM | K562 2.62 µM | UO-31 5.19 µM | 786-0 4.43 µM | LOX IMVI 6.43 µM | RXF 393 4.61 µM | SF-295 3.05 µM | NCI-H23 7.59 µM

Cc1c2ccncc2cc2c1sc1ccncc12
inactive: CCRF-CEM 1.21 µM | U-251 2.22 µM | SF-539 4.56 µM | SK-MEL-5 1.68 µM | Hs-578T 2.39 µM | DU-145 1.97 µM | OVCAR-3 6.56 µM | KM12 3.55 µM | IGROV-1 3.47 µM | COLO 205 3.24 µM | SNB-19 2.74 µM | DLD-1 4.18 µM | SW-620 1.45 µM | K562 4.14 µM | UO-31 1.27 µM | 786-0 2.06 µM | LOX IMVI 1.57 µM | RXF 393 5.24 µM | SF-295 1.96 µM | NCI-H23 2.51 µM

CC(=O)Nc1ccc(C2[C@H]3C(=O)N(c4ccc(Cc5ccc(N6C(=O)[C@@H]7ON(c8ccccc8)C(c8ccc(NC(C)=O)cc8)[C@@H]7C6=O)cc5)cc4)C(=O)[C@H]3ON2c2ccccc2)cc1 (stereo partly drawn)
inactive: CCRF-CEM > 100 µM | U-251 > 100 µM | SF-539 > 100 µM | SK-MEL-5 32.6 µM | OVCAR-3 > 100 µM | KM12 > 100 µM | IGROV-1 > 100 µM | COLO 205 74.6 µM | SNB-19 > 100 µM | DLD-1 > 100 µM | SW-620 > 100 µM | K562 > 100 µM | UO-31 > 100 µM | 786-0 > 100 µM | LOX IMVI > 100 µM | RXF 393 > 100 µM | SF-295 > 100 µM | NCI-H23 > 100 µM
